Patent US7649013B2, “Methods of protecting against radiation injury” (priority 2003, dated 2010)
“Also recorded” adds a separate entry of the source.

Experiments:
[1] = test system: E2F1 in normal colon cells (NCM460); test: E2F1 level in whole cell extracts, SDS/PAGE and enhanced chemiluminescence, normal colon cells; format: cell-based, human; conditions: NCM460, 2 μM, 20 minute to 4 hour exposures
Protocol: Human colon cancer cells (SW480) and normal colon cells (NCM460) are treated with β-lapachone at a concentration of 2 μM and are harvested after 20 minute, 1 hour, 2 hour, or 4 hour exposures. Whole cell extracts are prepared and resolved by SDS/PAGE. An enhanced chemiluminescence assay system (Amersham Pharmacia) is used to determine the E2F1 level. Monoclonal antibody against […] is obtained from Santa Cruz Biotechnology (Santa Cruz, Calif.). […] Elevation of E2F1 following exposure to β-lapachone persists through cell death in cancer cells.

[2] = test system: Chk2 in human cervical cancer cells (HeLa); test: Chk2 phosphorylation by immunoblotting of whole cell lysates; format: cell-based; conditions: 4 μM
Protocol: Human cervical cancer cells (HeLa) are treated with 4 μM β-lapachone for 0, 3, 10, 30, 60 and 120 minutes. Whole cell lysates are prepared, separated by SDS-PAGE, and analyzed by immunoblotting with anti-Chk2 and anti-phosphorylated-Chk2 antibodies.

[3] = test system: C57BL/6J inbred strain female mice; test: Survival after 8 Gy whole body γ-irradiation, intraperitoneal 40 mg/kg at varying time points (Example 5); format: in vivo; conditions: for No. of animals surviving at 68 days post-irradiation: 8 animals; for Death rate (%): 68 days
Protocol: (§1) β-lapachone is prepared at 10 mg/ml in 40% hydroxypropyl-beta-cyclodextrin (HPBCD).
(§2) C57BL/6J inbred strain female mice (4-5 weeks old) are used. Animals are maintained in a climate-controlled animal facility.
The animals are injected intraperitoneally with β-lapachone (40 mg/kg body weight) either 0.5 hour, 1 hour, or 4 hours before irradiation, or 10 minutes or 1 hour after irradiation.
Whole body irradiation of animals with 8 Gy of γ-rays is carried out in air at room temperature in a gamma chamber (Gammacell 40 Exactor) with a dose-rate of 1.05 Gy/min. This radiation dose is within the range of equivalent human exposures predicted in many scenarios of radiologic or nuclear terrorist attack.
Mice are divided in following groups (each Group comprises eight mice receiving identical treatment):
Group III: Mice are injected with β-lapachone 40 mg/kg body weight 4 hours before radiation.
Group IV: Mice are injected with β-lapachone 40 mg/kg body weight 1 hour before radiation.
Group V: Mice are injected with β-lapachone 40 mg/kg body weight 0.5 hours before radiation.
Group VI: Mice are injected with β-lapachone 40 mg/kg body weight 10 minutes after radiation.
Group VII: Mice are injected with β-lapachone 40 mg/kg body weight 1 hour after radiation.
Animals are irradiated with 8 Gy at 1.05 Gy/min dose-rate. After irradiation mice are returned to their cage and observed on a regular basis. Exposure to γ-rays causes lethality in animals. Importantly, treatment with β-lapachone, especially at a level of 40 mg/kg either 4, 1, or 0.5 hours prior to irradiation, diminishes the death rate.

[4] = test system: C57BL/6J inbred strain female mice; test: Survival after 8 Gy whole body γ-irradiation, oral 200 mg/kg at varying time points before (Example 6); format: in vivo; conditions: for No. of animals surviving at 20 days post-irradiation: 10 animals; for Death rate (%): 20 days
Protocol: as §1, §2
β-lapachone (200 mg/kg body weight) is orally administered to animals at either 0.5 hour, 1 hour, 2 hours, 4 hours or 6 hours before irradiation.
Whole body irradiation of animals with 8 Gy of γ-rays is carried out in air at room temperature in a gamma chamber (Gammacell 40 Exactor), at a dose-rate of 1.05 Gy/min. This radiation dose is within the range of equivalent human exposures predicted in many scenarios of radiologic or nuclear terrorist attack. […]
Group III: β-lapachone (200 mg/kg body weight) is orally administered to mice 6 hours before radiation.
Group IV: β-lapachone (200 mg/kg body weight) is orally administered to mice 4 hours before radiation.
Group V: β-lapachone (200 mg/kg body weight) is orally administered to mice 2 hours before radiation.
Group VI: β-lapachone (200 mg/kg body weight) is orally administered to mice 1 hour before radiation.
Group VII: β-lapachone (200 mg/kg body weight) is orally administered to mice 0.5 hour before radiation.
Animals are irradiated with 8 Gy at 1.05 Gy/min dose-rate. After irradiation mice are returned to their cage and observed on a regular basis. Exposure to γ-rays causes lethality in animals. Importantly, treatment with β-lapachone, especially at a level of 200 mg/kg orally at one hour prior to irradiation, diminishes the death rate.

[5] = test system: C57BL/6J inbred strain female mice; test: Quantitative spleen cellularity after whole body irradiation, trypan blue exclusion count (Example 7b); format: in vivo; conditions: 40 mg/kg i.p. 0.5 hour before 8 Gy; day five and eight; P=0.00035
Protocol: Spleen cellularity is quantitatively assessed following whole body gamma irradiation in mice, with and without pretreatment with β-lapachone, as follows. β-lapachone is prepared at 10 mg/ml in 40% hydroxypropyl-beta-cyclodextrin (HPBCD). C57BL/6J inbred strain female mice (4-5 weeks old) are organized into three groups of six mice each: Group I mice receive no radiation, no β-lapachone, and no carrier; Group II mice receive radiation and are injected with carrier (40% HPBCD 4 ml/kg body weight); and Group III mice are injected intraperitoneally at 0.5 hour before irradiation with β-lapachone (40 mg/kg body weight). […] Three mice in each of Groups I, II, and III are sacrificed on day five following irradiation, and a quantitative analysis of splenic cellularity is performed for each. The remaining mice are sacrificed on day eight following irradiation, and a quantitative analysis of splenic cellularity is performed for each.
For quantitative analysis for splenic cellularity, spleens are processed into single cell suspensions and erythrocytes are lysed in 2 ml lysis buffer (0.01 M KHCO3, 0.154 M NH4Cl, 0.01 mM EDTA). The remaining leukocytes are washed, suspended and counted in a hemacytometer using the trypan blue exclusion method.

[6] = test system: dogs; conditions: p.o. daily for one month; cited from earlier work
[7] = 40 mg/kg i.p. 10 min after Radiation 8 Gy
[8] = 40 mg/kg i.p. 0.5 hr before Radiation 8 Gy
[9] = 40 mg/kg i.p. 1 hr after Radiation 8 Gy
[10] = 40 mg/kg i.p. 1 hr before Radiation 8 Gy
[11] = 40 mg/kg i.p. 4 hr before Radiation 8 Gy
[12] = 200 mg/kg p.o. 0.5 hr before Radiation 8 Gy
[13] = 200 mg/kg p.o. 1 hr before Radiation 8 Gy
[14] = 200 mg/kg p.o. 2 hr before Radiation 8 Gy
[15] = 200 mg/kg p.o. 4 hr before Radiation 8 Gy
[16] = 200 mg/kg p.o. 6 hr before Radiation 8 Gy

**Q.** Which E2F1 level [1] does the source give for `CC1(C)CCC2=C(O1)c1ccccc1C(=O)C2=O` [β-lapachone, 3,4-dihydro-2,2-dimethyl-2H-naphtho[1,2-b]pyran-5,6-dione] here?
**A.** not in similarly treated normal human colon cells

**Q.** And the “Time at which phosphorylated Chk2 levels appear” value [2]?
**A.** 10 min

**Q.** What about the “Phosphorylated Chk2 (p-Chk2) level / proportion of phosphorylated Chk2” value ([2]; 0-120 minutes) of the same molecule?
**A.** induces an increase in the proportion of phosphorylated Chk2; also recorded: sustained increase

**Q.** What about the “Total amount of Chk2 within the cells” value ([2]; 0-120 minutes) of the same molecule?
**A.** remains unchanged

**Q.** And the “Median survival time” value [3, 7]?
**A.** 14 days

**Q.** What about the “No. of animals surviving at 68 days post-irradiation” value [3, 7] of the same molecule?
**A.** 0

**Q.** And the “Death rate (%)” value [3, 7]?
**A.** 100%

**Q.** And the “Median survival time” value ([3]; 40 mg/kg i.p. 0.5 hr before Radiation 8 Gy (no death))?
**A.** >68 days

**Q.** And the “No. of animals surviving at 68 days post-irradiation” value [3, 8]?
**A.** 8

**Q.** What about the “Death rate (%)” value [3, 8] of the same molecule?
**A.** 0%

**Q.** And the “Median survival time” value [3, 9]?
**A.** 16 days

**Q.** What about the “No. of animals surviving at 68 days post-irradiation” value [3, 9] of the same molecule?
**A.** 0

**Q.** And the “Death rate (%)” value [3, 9]?
**A.** 100%

**Q.** What about the “Median survival time” value [3, 10] of the same molecule?
**A.** 68 days

**Q.** What about the “No. of animals surviving at 68 days post-irradiation” value [3, 10] of the same molecule?
**A.** 4

**Q.** And the “Death rate (%)” value [3, 10]?
**A.** 50%

**Q.** And the “Median survival time” value [3, 11]?
**A.** 21 days

**Q.** What about the “No. of animals surviving at 68 days post-irradiation” value [3, 11] of the same molecule?
**A.** 2

**Q.** And the “Death rate (%)” value [3, 11]?
**A.** 75%

**Q.** And the “Temporal survival pattern (FIG. 6)” value ([3]; 40 mg/kg i.p. at 0.5, 1.0 or four hours prior to 8 Gy, vs control decline at 16-20 days)?
**A.** delayed this early decline in survival

**Q.** What about the “Median survival time” value [4, 12] of the same molecule?
**A.** 10 days

**Q.** What about the “No. of animals surviving at 20 days post-irradiation” value [4, 12] of the same molecule?
**A.** 0

**Q.** And the “Death rate (%)” value [4, 12]?
**A.** 100%

**Q.** What about the “Survival of the treated mice at day 50 post irradiation (FIG. 7)” value ([4]; 200 mg/kg p.o. 1 hour prior to 8 Gy) of the same molecule?
**A.** more than 30%

**Q.** And the “Median survival time” value [4, 13]?
**A.** 18 days

**Q.** And the “No. of animals surviving at 20 days post-irradiation” value [4, 13]?
**A.** 3

**Q.** What about the “Death rate (%)” value [4, 13] of the same molecule?
**A.** 70%

**Q.** What about the “Median survival time” value [4, 14] of the same molecule?
**A.** 10 days

**Q.** What about the “No. of animals surviving at 20 days post-irradiation” value [4, 14] of the same molecule?
**A.** 0

**Q.** And the “Death rate (%)” value [4, 14]?
**A.** 100%

**Q.** And the “Median survival time” value [4, 15]?
**A.** 14 days

**Q.** And the “No. of animals surviving at 20 days post-irradiation” value [4, 15]?
**A.** 0

**Q.** And the “Death rate (%)” value [4, 15]?
**A.** 100%

**Q.** What about the “Median survival time” value [4, 16] of the same molecule?
**A.** 18 days

**Q.** And the “No. of animals surviving at 20 days post-irradiation” value [4, 16]?
**A.** 1

**Q.** And the “Death rate (%)” value [4, 16]?
**A.** 90%

**Q.** What about the “Splenic cellularity, quantitative (FIG. 9)” value [5] of the same molecule?
**A.** significantly preserved cellularity

**Q.** What about the Maximum tolerated dose [6] of the same molecule?
**A.** 100 mg/kg
